# Key:
# [1] = system: 4T1 cancer cells; assay: Real Time Cell Analysis, cytotoxicity of T-cells +/- macrophages towards 4T1 cells; format: cell-based, mouse
# Description: To investigate whether the effect of iTEAD treatment on macrophages can enhance their crosstalk with T-cells in the lung microenvironment, peritoneal macrophages+/−iTEAD were first isolated and characterized as a model of resident macrophages for ex vivo experiments (FIG. 14, Panel A). It was observed that treatment with VT107 decreased gene expression of M2-like and fibrosis regulators, Aldh1a1 and Cc117 (Chen et al., 2020), as well as TEAD4 and its downstream target gene Ankrd1. […] The iTEAD pretreated peritoneal macrophages and untreated T-cells isolated from the spleen of tumor naïve mice (FIG. 14, Panel A) were then mixed for 5 hours before collecting the conditioned media for analysis. […] Next, these immune cell mixes were added to 4T1 spheres that were embedded into matrix. […] This effect was reversed by an IL12 neutralizing antibody. No change in cleaved caspase-3 in 4T1 cells in the presence of VT107-treated T-cells or macrophages alone, was detected at 24 hours (FIG. 14, Panels C and D). 4T1 cells were then plated and allowed to attach on electrode-coated arrays to monitor cancer cell viability before the addition of macrophages+/−iTEAD and T-cells. […]
# Cell analysis was done using E-plates from xCELLigence, (Agilent, #5469830001) according to the manufacturer's protocol. […] Cell index was measured by changes in electric impedance at 15 min intervals. […]
# [2] = system: THP1 macrophages; assay: qPCR gene expression in THP1 macrophages; format: cell-based, human; settings: 1 μM VT107 vs vehicle
# Description: To determine if knockdown of TEAD mimicked iTEAD effects, THP1 cells were transduced with shRNAs targeting TEAD 1, 3 and 4 or GFP as a control. Knockdown was confirmed by western blot with a pan TEAD antibody (FIG. 13, Panel A). […] TEAD knockdown in THP1 macrophages decreased protumor inflammatory cytokines CXCL2, 5, and 6 (FIG. 12, Panel C). […] Signaling pathways related to inflammatory diseases, such as rheumatoid arthritis, were decreased (FIG. 12, Panel D), as well as the inflammatory upstream regulators LPS and TNF (FIG. 12, Panel E). The score for M2-like upstream regulators, OSM (Shrivastava et al., 2019) and IL17A (Miller et al., 2020) was decreased by TEAD knockdown yet importantly, IL12 and the immune modulator used to enhance immunotherapy, NC410, scores were increased (Ramos et al., 2021) (FIG. 12, Panel D). Taken together, the response to iTEAD treatment or TEAD knockdown enhanced macrophages interaction with tumor cells and IL12 signaling. The global anti-inflammatory effect and the repression of the M2-like macrophage phenotypes are known to oppose the establishment of a hospitable metastatic niche (McGinnis et al., 2024; Sica et al., 2008; Noy & Pollard, 2014).
# Total RNA was extracted from cell lines using a RNeasy Mini Kit (Qiagen, #74104) according to the manufacturer's instructions. cDNA from total RNA was made with the iScript cDNA synthesis kit according to the manufacturer's protocol (Biorad, #170-8891) and qPCR was performed in an iCycler iQ (BioRad) using the iQ SYBR Green Supermix (BioRad, #170-8882).
substance,measurement,setting,value
VT107,cytotoxicity of T-cells alone,[1]; extended VT107 treatment,slight increase
same,T-cells' cytotoxicity towards 4T1 cells,"[1]; macrophages pretreated 24 hrs with 1 μM VT107, compared to T-cells alone",significantly increased
same,CD80 gene expression level,[2],increase
same,IL12 gene expression level,[2],increase
same,"expression of YAP/TEAD target genes CTGF, S100Δ8 and S100Δ9",[2],downregulated
same,"expression of YAP/TEAD target genes CTGF, S100Δ8 and S100Δ9",[2]; listed as iTEAD,decreased expression

# Source: patent US20250352524A1, “PREVENTION OF METASTATIC OUTGROWTH USING TEAD INHIBITORS” (Georgetown University, priority 2024, published 2025)
